From PMC5823406, “Vehicle development, pharmacokinetics and toxicity of the anti-invasive agent 4-fluoro-3’,4’,5’-trimethoxychalcone in rodents” (PLoS ONE, 2018)
Marks after values point to notes of the source that are not given here.

System: CD-1 mice
Experiment: 7-Day repeat-dose toxicity study (medicated gel)
Type: in vivo, mouse
Settings: for Organ weight: Kidneys / Organ weight: Liver / Organ weight: Spleen: Average±SD; for Hyperactivity and increased anxiety on opening of the cages: from day 2 on
Description: Fifteen 7-week old male CD-1 mice, weighing 27 to 34 g, were obtained from Janvier, France. Animals were randomly allocated to one of four cohorts (N = 4 for the 0 mg/kg, 100 mg/kg and 300 mg/kg C16 cohorts, N = 3 for the water control group). Animals were healthy at the start of the trial. Each cohort was housed in one conventional cage with wood chip bedding and kept in a room with a well-controlled temperature (20–24°C) and humidity with 12-h light/dark cycles. Duration of acclimation was five days, during which all animals had ad libitum access to feed and tap water. Feed was obtained from Carfil, Belgium (Complete feed for rats and mice, article n° 10783915). Animals were ear-marked under isoflurane anesthesia (induction 5%, maintenance 2.5%, oxygen 1 L/min) on day -3 of the study. The study was not blinded.
On the morning of day -2 of the study, tap water access was removed from the 0 mg/kg, 100 mg/kg and 300 mg/kg C16 cohorts. These groups were granted access to two non-medicated cups of Medigel sucralose (one in a tailor-made plastic holder with magnetic fixation system to the side of the cage, one in a cardboard holder on top of the bedding material) for an acclimatization period of three days. Note: the magnetic fixation system is preferable, as animals tear and consume the cardboard holders.
Medicated gels were prepared in order to provide animals with a PO C16 dose equaling oral gavage dosing at 0, 100 and 300 mg/kg three times per day (0, 78.43 and 235.29 mg C16 per cup, respectively, assuming a consumption of 7 mL of gel per day and an average animal weight of 30 g). On the morning of day 0 of the study, treatment with two medicated gels was started and maintained up to the morning of day 7 (i.e. a 7-day treatment). Fresh cups were prepared and provided every day. Meanwhile, the water control group was continuously granted unlimited access to tap water. Throughout the study, all animals had ad libitum access to feed, except for the water control group, which was fasted on the evening of day 6, i.e. twelve hours prior to the single PO test article administration. Animal weight, feed and water/gel consumption and the presence of toxic symptoms and autonomic effects were monitored on a daily basis for all cohorts.
On the evening of day 6, blood was collected via the tail vein for the 0, 100 and 300 mg/kg C16 cohorts for determination of the whole blood C16 level. On the morning of day 7, mice of the 0, 100 and 300 mg/kg C16 cohorts were anesthetized by IP injection with 250 mg/kg of Avertin (20 mL/kg, preparation see Section E in S1 File). Blood for C16 determination and hematological and biochemical analysis was collected via cardiac exsanguination (600 μL to 1 mL). Detailed analysis protocols are described below. Afterward, animals were sacrificed by cervical dislocation.
All animals were necropsied and assessed for gross pathology. Liver, kidneys and spleen weights were recorded, and fragments of these organs were fixed in a 4% formaldehyde solution and processed for microscopic evaluation.
Cardiac puncture as described above afforded 0.6–1 mL of blood. Approximately 500 μL thereof was collected in a Greiner Bio 0.5 mL ethylenediaminetetraacetic acid (EDTA) Eppendorf tube for hematological parameter determination and kept at room temperature. The remaining volume was collected in a regular Eppendorf tube and allowed to clot completely at room temperature over 45 min. The tubes were centrifuged at 1,900 x g (3000 rpm) and 4 °C for 10 min using a swinging bucket rotor. The upper serum phase was transferred to a new tube with conical bottom. Care was taken not to disturb the intermediate buffy coat layer. The serum samples were centrifuged at 16,000 x g and 4 °C for 10 min in a fixed-angle rotor. The cleared supernatant was transferred to a new tube without disturbing the pellet, affording 200–500 μL of serum. Samples were diluted to 500 μL with normal saline, flash frozen in liquid N2 and stored at -80 °C prior to analysis. […]

[1] = 100 mg/kg cohort, 7-day PO via medicated gels, average±SD
[2] = 300 mg/kg cohort, 7-day PO via medicated gels
[3] = 300 mg/kg cohort, 7-day PO via medicated gels, average±SD

`COc1cc(C(=O)/C=C/c2ccc(F)cc2)cc(OC)c1OC` [C16, 4-fluoro-3’,4’,5’-trimethoxychalcone] was tested. Which ALP [1] did it give?
Its ALP is 118±33 IU/L.

And the ALT [1]?
Its ALT is 70±40 IU/L.

And the AST [1]?
The AST was 345±365 IU/L.

And the BASO [1]?
Its BASO is 0.2±0.2%.

What about the CHO [1] of the same compound?
Its CHO is 96 ± 21 mg/dL.

What about the EO [1] of the same compound?
Its EO is 0±0%.

What about the GLUC [1] of the same compound?
Its GLUC is 218 ± 30 mg/dL.

What about the HCT [1] of the same compound?
Its HCT is 44.5±5.2%.

What about the HGB [1] of the same compound?
Its HGB is 12.2 ± 0.2 g/dL.

What about the IG [1] of the same compound?
The IG was 0.04±0.06 10^3/μL.

And the LYMP [1]?
The LYMP was 79.2±3.4%.

What about the MCH [1] of the same compound?
Its MCH is 14.7 ± 1.5 pg.

And the MCV [1]?
The MCV was 53.4 ± 1.8 fL.

And the MONO [1]?
Its MONO is 2.5±0.6%.

What about the NEUT [1] of the same compound?
The NEUT was 16.9±4.9%.

And the NRBC [1]?
The NRBC was 0.75±1.06 10^3/μL.

And the PLT [1]?
The PLT was 281±33 10^3/μL.

What about the RBC [1] of the same compound?
The RBC was 8.32±0.69 10^6/μL.

What about the TP [1] of the same compound?
The TP was 42.0 ± 4.5 g/L.

And the TRIGL [1]?
The TRIGL was 110 ± 45 mg/dL.

What about the WBC [1] of the same compound?
Its WBC is 3.05±0.08 10^3/μL.

And the “Organ weight: Kidneys” value (100 mg/kg cohort)?
The value was 0.45 ± 0.02 g.

And the “Organ weight: Liver” value (100 mg/kg cohort)?
The value was 1.67 ± 0.33 g.

And the “Organ weight: Spleen” value (100 mg/kg cohort)?
Its value is 0.16 ± 0.06 g.

And the “Daily gel consumption, average” value (100 mg/kg cohort, Day 1)?
Its value is 14.9 g/animal.

What about the “Feed consumption, average” value (100 mg/kg cohort, Day 1) of the same compound?
Its value is 4.8 g/animal.

And the Animal weight (100 mg/kg cohort, Day 1, Average±SD)?
Its Animal weight is 30.0 ± 1.7 g.

What about the “Daily gel consumption, average” value (100 mg/kg cohort, Day 2) of the same compound?
The value was 12.3 g/animal.

What about the “Feed consumption, average” value (100 mg/kg cohort, Day 2) of the same compound?
Its value is 5.4 g/animal.

And the Animal weight (100 mg/kg cohort, Day 2, Average±SD)?
The Animal weight was 30.6 ± 1.6 g.

And the “Daily gel consumption, average” value (100 mg/kg cohort, Day 3)?
Its value is 11.2 g/animal.

What about the “Feed consumption, average” value (100 mg/kg cohort, Day 3) of the same compound?
Its value is 6.1 g/animal.

What about the Animal weight (100 mg/kg cohort, Day 3, Average±SD) of the same compound?
The Animal weight was 31.2 ± 2.0 g.

And the “Daily gel consumption, average” value (100 mg/kg cohort, Day 4)?
Its value is 15.1 g/animal.

What about the “Feed consumption, average” value (100 mg/kg cohort, Day 4) of the same compound?
Its value is 6.9 g/animal.

What about the Animal weight (100 mg/kg cohort, Day 4, Average±SD) of the same compound?
The Animal weight was 32.0 ± 2.1 g.

And the “Daily gel consumption, average” value (100 mg/kg cohort, Day 5)?
The value was 18.1 g/animal.

And the “Feed consumption, average” value (100 mg/kg cohort, Day 5)?
The value was 5.9 g/animal.

And the Animal weight (100 mg/kg cohort, Day 5, Average±SD)?
The Animal weight was 32.4 ± 2.0 g.

And the “Daily gel consumption, average” value (100 mg/kg cohort, Day 6)?
Its value is 13.1 g/animal.

And the “Feed consumption, average” value (100 mg/kg cohort, Day 6)?
Its value is 5.6 g/animal.

What about the Animal weight (100 mg/kg cohort, Day 6, Average±SD) of the same compound?
The Animal weight was 32.1 ± 2.0 g.

What about the “Daily gel consumption, average” value (100 mg/kg cohort, Day 7) of the same compound?
Its value is 11.8 g/animal.

What about the “Feed consumption, average” value (100 mg/kg cohort, Day 7) of the same compound?
Its value is 5.6 g/animal.

And the Animal weight (100 mg/kg cohort, Day 7, Average±SD)?
Its Animal weight is 32.7 ± 2.2 g.

What about the “Hyperactivity and increased anxiety on opening of the cages” value (100 mg/kg cohort) of the same compound?
The value was “slightly noticeable”.

What about the IG [2] of the same compound?
Its IG is 0 10^3/μL.

What about the LYMP [2] of the same compound?
Its LYMP is 60.1%.

What about the NEUT [2] of the same compound?
The NEUT was 39.9%.

What about the ALP [3] of the same compound?
The ALP was 94±18 IU/L.

And the ALT [3]?
The ALT was 43±9 IU/L.

What about the AST [3] of the same compound?
Its AST is 221±65 IU/L.

And the BASO [3]?
Its BASO is 0±0%.

And the CHO [3]?
The CHO was 73 ± 18 mg/dL.

What about the EO [3] of the same compound?
Its EO is 0±0%.

What about the GLUC [3] of the same compound?
The GLUC was 206±24 ^a mg/dL.

And the HCT [3]?
Its HCT is 34.0±7.78%.

And the HGB [3]?
The HGB was 10.1 ± 2.9 g/dL.

And the MCH [3]?
Its MCH is 16.0 ± 0.2 pg.

What about the MCV [3] of the same compound?
Its MCV is 54.5 ± 4.24 fL.

What about the MONO [3] of the same compound?
The MONO was 2.6±3.7%.

And the NRBC [3]?
Its NRBC is 0.35±0.49 10^3/μL.

And the RBC [3]?
The RBC was 6.32±1.92 10^6/μL.

And the TP [3]?
Its TP is 31.6 ± 21.3 g/L.

And the TRIGL [3]?
The TRIGL was 123 ± 55 mg/dL.

What about the WBC [3] of the same compound?
Its WBC is 2.97±0.94 10^3/μL.

What about the “Organ weight: Liver” value (300 mg/kg cohort) of the same compound?
The value was 1.70 ± 0.19 g.

What about the “Organ weight: Spleen” value (300 mg/kg cohort) of the same compound?
The value was 0.15 ± 0.04 g.

And the “Organ weight: Kidneys” value (300 mg/kg cohort, p 0.001)?
The value was 0.39 ± 0.02 g.

What about the “Daily gel consumption, average” value (300 mg/kg cohort, Day 1) of the same compound?
Its value is 15.2 g/animal.

And the “Feed consumption, average” value (300 mg/kg cohort, Day 1)?
Its value is 6.0 g/animal.

And the Animal weight (300 mg/kg cohort, Day 1, Average±SD)?
The Animal weight was 28.6 ± 0.6 g.

And the “Daily gel consumption, average” value (300 mg/kg cohort, Day 2)?
The value was 12.6 g/animal.

And the “Feed consumption, average” value (300 mg/kg cohort, Day 2)?
The value was 6.3 g/animal.

And the Animal weight (300 mg/kg cohort, Day 2, Average±SD)?
Its Animal weight is 29.8 ± 0.7 g.

And the “Daily gel consumption, average” value (300 mg/kg cohort, Day 3)?
The value was 14.7 g/animal.

What about the “Feed consumption, average” value (300 mg/kg cohort, Day 3) of the same compound?
Its value is 8.4 g/animal.

And the Animal weight (300 mg/kg cohort, Day 3, Average±SD)?
Its Animal weight is 29.6 ± 0.8 g.

What about the “Daily gel consumption, average” value (300 mg/kg cohort, Day 4) of the same compound?
The value was 12.9 g/animal.

And the “Feed consumption, average” value (300 mg/kg cohort, Day 4)?
Its value is 6.6 g/animal.

What about the Animal weight (300 mg/kg cohort, Day 4, Average±SD) of the same compound?
The Animal weight was 30.5 ± 1.4 g.

What about the “Daily gel consumption, average” value (300 mg/kg cohort, Day 5) of the same compound?
Its value is 15.4 g/animal.

And the “Feed consumption, average” value (300 mg/kg cohort, Day 5)?
Its value is 6.1 g/animal.

What about the Animal weight (300 mg/kg cohort, Day 5, Average±SD) of the same compound?
Its Animal weight is 30.7 ± 1.6 g.

And the “Daily gel consumption, average” value (300 mg/kg cohort, Day 6)?
Its value is 13.6 g/animal.

And the “Feed consumption, average” value (300 mg/kg cohort, Day 6)?
Its value is 7.1 g/animal.

What about the Animal weight (300 mg/kg cohort, Day 6, Average±SD) of the same compound?
Its Animal weight is 31.1 ± 1.8 g.

And the “Daily gel consumption, average” value (300 mg/kg cohort, Day 7)?
Its value is 12.9 g/animal.

And the “Feed consumption, average” value (300 mg/kg cohort, Day 7)?
The value was 6.2 g/animal.

What about the Animal weight (300 mg/kg cohort, Day 7, Average±SD) of the same compound?
The Animal weight was 31.3 ± 1.2 g.

What about the “Hyperactivity and increased anxiety on opening of the cages” value (300 mg/kg cohort) of the same compound?
The value was “noticeable”.

What about the “Kidney weight versus 100 mg/kg and 0 mg/kg cohort” value (300 mg/kg cohort, p = 0.001) of the same compound?
Its value is “slight but significant decrease”.

And the “Gross lesions on detailed necropsy” value (medicated gel, 7 days)?
The value was “No gross lesions”.

And the “Histology of the kidney and spleen” value (medicated gel, 7 days)?
Its value is “no abnormalities”.
